Measured values reported in US10947273B2, “Peptides of use in the preventive and curative treatment of alopecia” (Institut Europeen de Biologie Cellulaire, priority 2015, dated 2021).
Marks after values point to notes of the source that are not given here. The star is where a group is joined. Palmitoyl = CCCCCCCCCCCCCCCC(=O)*

Assays:
SCF [1] = experiment: SCF secretion by HHFK (ELISA/BioPlex); type: cell-based, human; details: 10^−7 M, 48h
Procedure: (§1) NHDF, HFDPC, HHFK and NHEM cells were treated with the peptides studied for 48h. At the end of the treatment, cell supernatants were collected and stored at −80° C. until analysis. The factors of interest secreted into the supernatant were assayed by ELISA® (R&D) or BioPlex® (BioRad®).
(§2) The results are expressed as percent increase in the concentration of the factor present in the supernatant relative to the untreated control. The intensity of the effect varies as a function of the concentration of the peptide studied and of the cell type treated.

PDGF = PDGF secretion by HFDPC (ELISA/BioPlex); type: cell-based, human; details: 48h
Procedure: as §1, §2

[2] = tested on: normal human dermal fibroblasts (NHDF); experiment: CellTiter-Blue proliferation of NHDF; type: cell-based; details: 10^−5M, 72 hours
Procedure: Cell proliferation and viability were evaluated in vitro with a kit from Promega, CellTiter-Blue® Cell Viability Assay, for estimating the number of living cells present in the culture. This kit is based on detection, by measurement of fluorescence, of conversion of the dye, resazurin, into a fluorescent product (resorufin) by living and thus metabolically active cells.
The effect of the peptides tested, (1) and (9), at 4 different concentrations (10^−5, 10^−7, 10^−9 and 10^−11M) was examined on five cell types: immortalized human skin keratinocytes (HaCaT), human hair follicular keratinocytes (HHFK), normal human dermal fibroblasts (NHDF), hair follicle dermal papilla cells (HFDPC), and normal human epidermal melanocytes (NHEM) exposed to the molecule studied for 72 hours.

KGF = KGF secretion by HFDPC (ELISA/BioPlex); type: cell-based, human; details: 48h
Procedure: as §1, §2

BMP2 [3] = experiment: BMP2 secretion by HFDPC (ELISA/BioPlex); type: cell-based, human; details: 10^−5 M, 48h
Procedure: as §1, §2

HGF = HGF secretion by HHFK (ELISA/BioPlex); type: cell-based, human; details: 10^−7 M, 48h
Procedure: as §1, §2

NGF [4] = experiment: NGF secretion by NHDF (ELISA/BioPlex); type: cell-based, human; details: 48h
Procedure: as §1, §2

IGF1 = experiment: qPCR (TLDA) IGF1 gene expression in HFDPC; type: cell-based, human; details: peptide 10^−9, 24 hours, relative to untreated controls
Procedure: (§3) To study the effect of 9 peptides on these genes, HFDPC were treated for 24 hours with the molecules tested at 10^−7M and 10^−9M concentrations.
(§4) RNA was extracted and purified from cell pellets using the RNA XS Kit (Macherey-Nagel). RNA quantification was carried out with a NanoDrop device and sample quality was verified on a Bioanalyzer with RNA 6000 Nano chips (Agilent). cDNA was synthesized from 300 ng of RNA using the High-Capacity cDNA Reverse Transcription Kit (LifeTech). Quality-control qPCR assays of the cDNA were carried out in microplates on the reference gene, GAPDH, and the SIRT1 gene.
(§5) Final qPCR experiments were carried out in a 1 μl volume on microfluidic cards (TaqMan Low Density Arrays, LifeTech) and the ABI 7900HT qPCR device. Amplification reactions were performed in duplicate using 1 to 2 ng of cDNA per qPCR reaction and TaqMan Universal Master Mix II (LifeTech).
(§6) Ct values were obtained using the RQ Manager software. For analyses of qPCR results, Ct values were limited to 35 cycles and the duplicate assays are averaged. The GeneXPro software was used for the studies of stability and of selection of the best reference genes. Expression variations are calculated by the relative quantification method and are expressed as percent increase in expression of the gene of interest relative to the untreated controls.

SCF [5] = experiment: SCF secretion by NHDF (ELISA/BioPlex); type: cell-based, human; details: 10^−5 M, 48h
Procedure: as §1, §2

NGF [6] = experiment: NGF secretion by HHFK (ELISA/BioPlex); type: cell-based, human; details: 10^−7 M, 48h
Procedure: as §1, §2

[7] = tested on: microdissected hairs from scalp surgery specimens; experiment: Growth of isolated hair ex vivo; type: cell-based, human; details: for Growth at D 11/D 12 Vs Control: ex vivo isolated hair
Procedure: This study was carried out on microdissected hairs from scalp surgery specimens from women aged 52 to 71 years. Isolated hairs were kept alive for 11 to 12 days in Williams medium, under conventional cell culture conditions (37° C., 5% CO2). […]
To evaluate the effect of (1), (6) or (9) on hair growth, the hairs were photographed and their lengths measured using image analysis software. Thus, the growth of the hairs between D0 and D11/D12 could be calculated and compared with that of the untreated control. At the end of the treatments (D11 or D12), the hairs were collected and frozen or fixed for immunolabeling and histological staining.

VEGF [8] = experiment: VEGF secretion by NHDF (ELISA/BioPlex); type: cell-based, human; details: 10^−7 M, 48h
Procedure: as §1, §2

VEGF [9] = experiment: VEGF secretion by HFDPC (ELISA/BioPlex); type: cell-based, human; details: 10^−5 M, 48h
Procedure: as §1, §2

VEGF [10] = experiment: VEGF secretion by NHEM (ELISA/BioPlex); type: cell-based, human; details: 10^−7 M, 48h
Procedure: as §1, §2

BMP2 [11] = experiment: qPCR (TLDA) BMP2 gene expression in HFDPC; type: cell-based, human; details: peptide 10^−9, 24 hours, relative to untreated controls
Procedure: as §3, §4, §5, §6

[12] = tested on: genes whose expression is reduced in subjects characterized by alopecia; experiment: qPCR (TLDA) overall statement, genes involved in alopecia, HFDPC; type: cell-based, human; details: summary of Table 1
Procedure: as §3, §4, §5, §6

VEGF [13] = experiment: qPCR (TLDA) VEGF gene expression in HFDPC; type: cell-based, human; details: peptide 10^−5 M (table title), 24 hours, relative to untreated controls
Procedure: as §4, §5, §6

Palm-Ala-Ala-Pro-Ala-Lys-NH2 (Palmitoyl-AAPAK-NH2; SMILES CCCCCCCCCCCCCCCC(=O)N[C@@H](C)C(=O)N[C@@H](C)C(=O)N1CCC[C@H]1C(=O)N[C@@H](C)C(=O)N[C@@H](CCCCN)C(N)=O) [(6)]
SCF secretion, percent increase relative to untreated control (SCF [1]): SCF 9% | PDGF secretion, percent increase relative to untreated control (PDGF; 10^−5 M): PDGF 15% | PDGF secretion, percent increase relative to untreated control (PDGF; 10^−7 M): PDGF 38% | stimulation of proliferation of NHDF [2]: +11% | KGF secretion, percent increase relative to untreated control (KGF; 10^−5 M): KGF 7% | KGF secretion, percent increase relative to untreated control (KGF; 10^−7 M): KGF 13% | BMP2 secretion, percent increase relative to untreated control (BMP2 [3]): BMP2 44% | HGF secretion, percent increase relative to untreated control (HGF): HGF 52% | NGF secretion, percent increase relative to untreated control (NGF [4]; 10^−5 M): NGF 51% | NGF secretion, percent increase relative to untreated control (NGF [4]; 10^−7 M): NGF 12% | % stimulation IGF1 gene expression (IGF1): 94% (10^−9) | SCF secretion, percent increase relative to untreated control (SCF [5]): SCF 8% | NGF secretion, percent increase relative to untreated control (NGF [6]): NGF 10% | Growth at D 11/D 12 Vs Control ([7]; 10^−7 M): +28% | Growth at D 11/D 12 Vs Control ([7]; 10^−9 M): +38%# | growth increase compared with minoxidil sulphate ([7]; peptide 10^−9M, minoxidil sulphate 10^−5 M): higher than that obtained after treatment with minoxidil sulphate | hair growth after 11 to 12 days of treatment ex vivo (in words) ([7]; summary of Table 3): stimulate hair growth | VEGF secretion, percent increase relative to untreated control (VEGF [8]): VGF 407% | VEGF secretion, percent increase relative to untreated control (VEGF [9]): VEGF 18% | VEGF secretion, percent increase relative to untreated control (VEGF [10]): VEGF 15% | % stimulation BMP2 gene expression (BMP2 [11]): 116% (10^−9) | stimulation of genes whose expression is reduced in alopecia (in words) [12]: stimulate several genes | % stimulation VEGF gene expression (VEGF [13]): 24%
